{"source": "patent US10570168B2", "about": "“2′ and/or 5′ amino-acid ester phosphoramidate 3′-deoxy adenosine derivatives as anti- cancer compounds” (NuCana plc, priority 2014, dated 2020)", "key": {"[1]": {"tested_on": "CCRF-CEM (TdT positive CEM)", "assay": "ATP (ViaLight plus) cytotoxicity assay", "type": "cell-based, Human", "conditions": "CEM (TdT+ve)", "procedure": "(§1) Certain compounds of the invention were subjected to further studies to test the cytotoxic activity of certain compounds of the invention and also to measure their activity against 4 haematological cancer cell lines • TdT positive CEM (Human ALL) • TdT negative K562 (Human CML) • TdT negative H1-60 (Human ANLL) • RL (CRL-2261) non-HD lymphoma • The concentrations of the active metabolite dATP (Cordycepin triphosphate) in these cell lines was also measured. • The cytotoxic activity and the intracellular 3′-dATP concentrations were also studied in the presence of hENT1, Adenosine Kinase (AK) and Adenosine Deaminase pharmacological inhibitors in CEM and RL cancer cell lines. Said inhibitors that mimic known cancer resistance mechanisms. Methods Cell Culture\n(§2) HL-60 (ATCC® CCL-240™), K562 (ATCC® CCL-243™), CCRF-CEM (ATCC® CRM-CCL-119™) and RL (ATCC® CRL-2261™) leukaemia cell lines, obtained from the American Type Culture Collection (ATCC), Middlesex. HL-60 and K562 cell lines are deoxynucleotidyl transferase-negative (TdT-ve), whereas CCRF-CEM cell line is TdT+ve.\n(§3) HL-60, K562, CCRF-CEM and RL cell lines were cultured in RPMI-1640 medium (Sigma Aldrich, UK), which were supplemented with 10% Fetal Bovine Serum (FBS) (PAA Laboratories), 1% amphotericin B (5.5 ml) and 1% penicillin/streptomycin (5.5 ml) (PAA Laboratories) and grown in flasks at 37° C. incubator with 5% CO2.\n(§4) The amount of ATP was used as a measurement of cell number and cell viability. ATP ViaLight™ plus assay kit (Lonza, USA: Product No. LT07-121) to detect ATP in cells treated in luminescence compatible 96 well plates (initial concentration of cells was 1×10^4 cells/well) with cordycepin and ProTides at concentrations of: 0, 0.1, 0.5, 1, 5 and 10 μM, followed by incubation for 72 hours at 37° C. incubator with 5% CO2. For inhibitor studies, 10 μM of NBTI or 1 μM EHNA or A-134974 was added and left for 5 minutes before adding the drugs (see section 5 for inhibitor details).\n(§5) After incubation, 50 μl of cell lysis reagent was added to the 96 well plates to release the intracellular ATP, followed by 100 μl of ATP monitoring reagent (AMR). The luminescent values of each well were determined using FLUOstar OPTIMA microplate reader (BMG Labtech) which convert ATP into light by using luciferase enzyme. Therefore, the amount of luminescence produced was directly proportional to the amount of ATP.\n(§6) Cell lines were treated in the same way as described above but before treatment with drugs, a number of inhibitors were added: • 1) Nitrobenzylthioinosine (NBTI) (Sigma-Aldrich, St. Louis, Mo., product # N2255) blocks nucleoside transporters • 2) EHNA hydrochloride (Sigma-Aldrich, St. Louis, Mo., product # E114) blocks adenosine deaminase • 3) Adenosine kinase inhibitor A-134974 dihydrochloride hydrate (Sigma-Aldrich, St. Louis, Mo., product # A2846): blocks adenosine kinase\n(§7) The dose-response curves of cytotoxicity of the drugs was determined using non-linear regression analysis of percentage cell viability versus concentration and EC50 values were obtained. The intracellular assay was conducted in five replicates for each condition. Intracellular assay was determined using paired t test (two-tailed) analysis of 3′ATP/ATP concentration and p-values were obtained. For all the analysis, Prism Software program (GraphPad Software) was used and Microsoft Powerpoint® 2013 was used to plot the results."}, "RL (CRL-2261)": {"tested_on": "RL (CRL-2261)", "assay": "ATP (ViaLight plus) cytotoxicity assay", "type": "cell-based", "conditions": "72 h, CRL (RL, CRL-2261)", "procedure": "as §1, §2, §3, §4, §5, §6, §7"}, "K562 (TdT negative)": {"tested_on": "K562 (TdT negative)", "assay": "ATP (ViaLight plus) cytotoxicity assay", "type": "cell-based, Human", "conditions": "Homo sapiens, K562, 72 h", "procedure": "as §1, §2, §3, §4, §5, §7"}, "HL-60 (TdT negative)": {"tested_on": "HL-60 (TdT negative)", "assay": "ATP (ViaLight plus) cytotoxicity assay", "type": "cell-based, Human", "conditions": "Homo sapiens, HL-60, 72 h", "procedure": "as §1, §2, §3, §4, §5, §7"}, "HL-60": {"tested_on": "HL-60", "assay": "CellTiterGlo viability assay, initial screening", "type": "cell-based", "conditions": "Homo sapiens, HL-60, 72 h, read-out: IC50 (relative IC50)", "procedure": "(§8) In vitro viability assays were performed to assess the effects of compounds on cell viability in 7 selected cell lines over 72 hr using the CellTiterGlo (CTG, Promega-G7573) assay. The tests were performed in duplicates with treatment of compounds at 9 points, 3.16 folds titration in 96 well plates over ˜72 hr. The compound starting concentrations were […]. Cell viability assay using CellTiterGlo in 96-well plate were performed. The compound treatment was 72 hrs, under standard growth conditions, and in duplicate. Compounds were dissolved to 40 mM with thawed […]. Compounds were serially diluted at 3.16 fold in thawed DMSO, and warmed to 37° C. before being dissolved in media (2 μl+200 μl). After compounds were dissolved in media (media was also warmed to 37° C.). Media containing compounds were warmed to 37° C. in incubator and then compounds in media were added to cell plates (50 μl+50 μl), in duplicates. The compounds final concentrations were from […] to 19.9 nM. All compound solubilities were checked and recorded again, then the plates were transferred to CO2 tissue culture incubator immediately and incubated for 3 days. DMSO final concentration is 0.5%."}, "HepG2": {"tested_on": "HepG2", "assay": "CellTiterGlo viability assay, initial screening", "type": "cell-based", "conditions": "Homo sapiens, HepG2, 72 h, read-out: IC50 (relative IC50)", "procedure": "as §8"}, "CCRF-CEM": {"tested_on": "CCRF-CEM", "assay": "CellTiterGlo viability assay, initial screening", "type": "cell-based", "conditions": "Homo sapiens, 72 h, read-out: IC50 (relative IC50)", "procedure": "as §8"}, "K562": {"tested_on": "K562", "assay": "CellTiterGlo viability assay, initial screening", "type": "cell-based", "conditions": "Homo sapiens, K562, 72 h, read-out: IC50 (relative IC50)", "procedure": "as §8"}, "MCF-7": {"tested_on": "MCF-7", "assay": "CellTiterGlo viability assay, initial screening", "type": "cell-based", "conditions": "Homo sapiens, MCF7, 72 h, read-out: IC50 (relative IC50)", "procedure": "as §8"}, "MOLT-4": {"tested_on": "MOLT-4", "assay": "CellTiterGlo viability assay, initial screening", "type": "cell-based", "conditions": "Homo sapiens, MOLT-4, 72 h, read-out: IC50 (relative IC50)", "procedure": "as §8"}, "KG-1": {"tested_on": "KG-1", "assay": "CellTiterGlo viability assay, initial screening", "type": "cell-based", "conditions": "Homo sapiens, KG-1, 72 h, read-out: IC50 (relative IC50)", "procedure": "as §8"}}}
{"smiles": "CCCCCOC(=O)[C@H](CC(C)C)NP(=O)(OC[C@@H]1C[C@@H](O)[C@H](n2cnc3c(N)ncnc32)O1)Oc1cccc2ccccc12", "note": "(mixture of isomers) [D, (2S)-pentyl 2-(((((2S,4R,5R)-5-(6-amino-9H-purin-9-yl)-4-hydroxytetrahydrofuran-2-yl)methoxy)(naphthalen-1-yloxy)phosphoryl)amino)-4-methylpentanoate]", "values": [{"measurement": "(FD) fold difference compared to Cordycepin = Cordycepin IC50/ProTide IC50", "setting": "[1]", "value": "(3)"}, {"measurement": "IC50", "setting": "[1]; Homo sapiens, CCRF-CEM, 72 h, 72 hours", "value": 6.1, "unit": "µM"}, {"measurement": "IC50", "setting": "RL (CRL-2261)", "value": 4.8, "unit": "µM"}, {"measurement": "IC50", "setting": "K562 (TdT negative)", "value": 4.2, "unit": "µM"}, {"measurement": "IC50", "setting": "HL-60 (TdT negative)", "value": 5.4, "unit": "µM"}, {"measurement": "IC50", "setting": "HL-60", "value": "5 to 15", "unit": "µM"}, {"measurement": "IC50", "setting": "HepG2", "value": "5 to 15", "unit": "µM"}, {"measurement": "IC50", "setting": "CCRF-CEM", "value": "5 to 15", "unit": "µM"}, {"measurement": "IC50", "setting": "K562", "value": "5 to 15", "unit": "µM"}, {"measurement": "IC50", "setting": "MCF-7", "value": "0.1 to 5", "unit": "µM"}, {"measurement": "IC50", "setting": "MOLT-4", "value": "0.1 to 5", "unit": "µM"}, {"measurement": "IC50", "setting": "KG-1", "value": "5 to 15", "unit": "µM"}]}
